According to US4628083A, “2-hydroxy-5-(arylazo)-benzene alkanoic acids” (Pharmacia AB, priority 1985, dated 1986):
“And” between values parts separate entries of the source, which are not always exact repeats. Identical values can stand only once.

Columns and labels:
Type in all cases: biochemical
[1] = molecular target: T1, prostaglandin-15-dehydrogenase (Homo sapiens, UniProt P15428); assay: Inhibition of prostaglandin F2α inactivation in cell-free human placenta preparation; conditions: for IC50: Inhibition 50 %, read-out: concentration giving 50% inhibition of the prostaglandin inactivation (converted)
T1 construct: cellfree preparations of different organs (containing prostaglandin-15-dehydrogenase); from tissue; host or cells: human placenta
T1 sequence (P15428 1-266): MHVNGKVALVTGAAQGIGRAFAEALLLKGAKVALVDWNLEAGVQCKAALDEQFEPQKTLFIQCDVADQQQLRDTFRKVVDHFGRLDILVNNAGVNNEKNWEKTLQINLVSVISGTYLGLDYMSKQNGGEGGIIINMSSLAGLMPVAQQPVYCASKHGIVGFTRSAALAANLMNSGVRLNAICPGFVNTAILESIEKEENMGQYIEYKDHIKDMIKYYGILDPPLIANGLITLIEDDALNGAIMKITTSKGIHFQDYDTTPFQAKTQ
Description: (§1) Radioactive prostaglandin F2α was incubated with cellfree preparations of different organs (containing prostaglandin-15-dehydrogenase) according to Hoult and Moore, British Journal of Pharmacology, Vol. 61 (1977), p. 615. After a suitable time the prostaglandins were extracted and separated by chromatography. Then the amount of remaining prostaglandin F2α was compared with the amounts of metabolites. The inhibiting effect was obtained by the addition of the compounds according to the invention during the incubation and comparison with control experiments without such addition. The results may be represented either as a concentration giving 50% inhibition of the prostaglandin inactivation, or as an inhibition in percent at a certain concentration of the studied compound. In the following table the results for some compounds according to the invention are shown compared to the known drug sulfasalazine.

[2] = molecular target: T2, prostaglandin-15-dehydrogenase (Rattus norvegicus, UniProt O08699); assay: Inhibition of prostaglandin F2α inactivation in cell-free rat organ preparations; conditions: for inhibition at 50 µM: 50 μM (A 19,9 μg/ml; C 12,8 μg/ml); for inhibition at 2 µM: 2 μM (0,82 μg/ml)
T2 construct: cellfree preparations of different organs (containing prostaglandin-15-dehydrogenase); from tissue
T2 sequence (O08699 1-266): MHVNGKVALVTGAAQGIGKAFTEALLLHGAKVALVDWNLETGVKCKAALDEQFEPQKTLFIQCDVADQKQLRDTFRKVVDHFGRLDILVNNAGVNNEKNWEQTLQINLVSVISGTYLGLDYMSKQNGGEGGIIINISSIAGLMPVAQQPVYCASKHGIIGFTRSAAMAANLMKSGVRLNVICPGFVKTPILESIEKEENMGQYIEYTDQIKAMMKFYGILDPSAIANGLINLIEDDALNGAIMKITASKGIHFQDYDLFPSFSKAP
Description: as §1

[3] = molecular target: T3, prostaglandin-15-dehydrogenase (Cavia porcellus, UniProt P70684); assay: Inhibition of prostaglandin F2α inactivation in cell-free guinea pig organ preparations; conditions: for inhibition at 2 µM: 2 μM (0,82 μg/ml); for inhibition at 50 µM: 50 μM (B 20,6 μg/ml; C 12,8 μg/ml)
T3 construct: cellfree preparations of different organs (containing prostaglandin-15-dehydrogenase); from tissue
T3 sequence (P70684 1-265): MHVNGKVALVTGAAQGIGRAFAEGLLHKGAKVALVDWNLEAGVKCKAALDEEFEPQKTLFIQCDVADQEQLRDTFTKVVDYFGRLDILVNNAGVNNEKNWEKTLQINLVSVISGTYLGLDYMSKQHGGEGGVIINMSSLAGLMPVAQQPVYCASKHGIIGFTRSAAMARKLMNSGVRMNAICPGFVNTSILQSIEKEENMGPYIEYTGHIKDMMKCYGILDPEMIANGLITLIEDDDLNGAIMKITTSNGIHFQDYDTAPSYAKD
Description: as §1

[4] = relative to compound A (sulfasalazine)

IC50 ([1]; Human placenta) | inhibition at 50 µM ([2]; Rat colon) [%] | inhibition at 50 µM ([1]; Human placenta, 50 μM (20,6 μg/ml)) [%] | times as active as the known compound A [1, 4] [times] | inhibition at 2 µM ([2]; Rat colon) [%] | inhibition at 2 µM ([2]; Rat kidney) [%] | inhibition at 2 µM ([2]; Rat lung) [%] | inhibition at 2 µM ([2]; Rat stomach) [%] | inhibition at 2 µM ([3]; Guinea pig colon) [%] | inhibition at 2 µM ([3]; Guinea pig duodenum) [%] | inhibition at 2 µM ([3]; Guinea pig kidney) [%] | inhibition at 50 µM ([3]; Guinea pig kidney) [%] | SMILES | activity compared with compound A [2, 4]
95 µM and 95.4 µM | 47.8 |  |  |  |  |  |  |  |  |  |  | O=C(O)c1cc(/N=N/c2ccc(S(=O)(=O)Nc3ccccn3)cc2)ccc1O [A, sulfasalazine, reference compound] | 
1.9 µM and 1.89 µM |  | 87.5 | 50 | 53.3 | 94.1 | 85.2 | 67.2 | 58.7 | 68.3 | 53.8 | 65.9 | O=C(O)Cc1cc(N=Nc2ccc(S(=O)(=O)Nc3ccccn3)cc2)ccc1O [B, 2-hydroxy-5-[4-[[(2-pyridinyl)amino]sulfonyl]phenylazo]benzeneacetic acid] | 
 | 71.3 |  |  |  |  |  |  |  |  |  | 45.4 | O=C(O)Cc1cc(N=Nc2ccccc2)ccc1O [C, 2-hydroxy-5-phenylazo-benzeneacetic acid] | significantly more active than compound A
